Data published in patent US20150198612A1, “Isotopic Labelling of Proteins” (UNIVERSITY OF DUNDEE, priority 2012, published 2015).

Columns and labels:
[1] = tested on: drug metabolism related proteins; experiment: LC-MS/MS protein expression profile of liver from induced mice (Example 1); type: in vivo; conditions: wild type mice liver; once daily i.p. for 3 days; TCPOBOP 1 mg/kg; versus corn oil; FIG. 3
Experimental: In order to generate a drug metabolism-enhanced SILAC model, the protein expression profiles of liver from animals induced with TCPOBOP (1 mg/kg) or pregnenolone 16α-carbonitrile (PCN) or vehicle were examined. […] Animals were sacrificed 3 days after dosing, liver tissue excised and snap-frozen in liquid nitrogen for storage at −80° C.
Frozen liver tissue was thawed by addition of 10 volumes SDT lysis buffer (4% SDS, 0.1M DTT, 100 mM Tris-HCl pH 7.6) then homogenised by rotor-stator (2×5 sec at 20 k revolutions). Homogenate was heated to 95° C. for 5 minutes, sonicated (2×5 sec), then centrifuged at 16,000×g for 10 minutes. Supernatant (protein sample for analysis) was removed, aliquoted and stored at −80° C. until use. Protein samples (total of 30 μg/well) were electrophoresed through a 12% bis-tris gel in MOPS running buffer supplemented with antioxidant (all Life Technologies, Paisley, UK) alongside a Spectra multicolour broad range protein ladder (Thermo Fisher Scientific, Waltham, Mass.). Gels were stained with coomassie blue, destained, and then rehydrated with Milli-Q water. […] Peptide sample concentration was determined by Nanodrop (Thermo Fisher Scientific) and adjusted to 0.2 mg/mL in water containing 0.1% (vol/vol) trifluoroacetic acid. […] Data were analysed using SIEVE software in conjunction with Mascot database search engine. […]

Cyp2B10 = experiment: SILAM LC-MS/MS quantification of Cyp2B10 in mouse liver (Example 2); conditions: for L/H ratio of Cyp2B10 peptide NLQELLDYIGHSVEK: mice treated 1 mg/kg
Experimental: This experiment was conducted to test the utility of the drug metabolism-enhanced reference in an actual SILAM protocol in comparison to normal SILAM protocol.
Liver protein extracts from wild type mice treated with TCPOBOP (1 mg/kg) or Ethoxyquin (1 mg/kg) or corn oil (control) were spiked with liver heavy protein extract from normal SILAM mice or drug metabolism pathway-enhanced SILAM mice according to the present invention.

drug metabolism enzymes = conditions: mouse, in vivo
Cyp4a = experiment: Western blot of liver drug metabolism enzymes, Cyp4a; conditions: C57BL/6 mice liver, once daily i.p. for 3 days, single inducer
Cyp3a = conditions: mouse, in vivo, ip
[2] = tested on: inflammation related proteins; experiment: LC-MS/MS of lung proteins after LPS treatment (Example 3); type: in vivo; conditions: male C57BL/6 mice, single i.p. injection 100 μg, lung 24 hours after dosing
Experimental: Male C57BL/6 mice were given a single intraperitoneal injection of lipopolysaccharide (LPS; 100 μg) or vehicle and tissues were harvested 24 hours after dosing. Lung tissues were lysed in 2% SDS buffer by ultrasonic probe and proteins extracted were resolved onto a SDS-PAGE, followed by a filter assisted trypsin digestion procedure. The protein digests were analysed by LC-MS/MS and the data were analysed using Peaks software for database search and Progenesis for quantification.

For Clc1cnc(Oc2ccc(Oc3ncc(Cl)cc3Cl)cc2)c(Cl)c1 [TCPOBOP], the “expression of drug metabolism related proteins relative to the total ion current” value [1] was “significantly increased the expression of many of these proteins”, the “Cyp2B10 expression relative to Ethoxyquin” value (Cyp2B10; from L/H ratios, pathway-enhanced SILAM) was 4 fold and the “levels of the low-abundance cytochrome protein Cyp2B10” value (Cyp2B10; general statement) was “efficiently increase levels”. For the same compound, the “L/H ratio of Cyp2B10 peptide NLQELLDYIGHSVEK” value (Cyp2B10; liver extract spiked with drug metabolism pathway-enhanced SILAM heavy liver extract, control L/H=0) was 2.50, the “L/H ratio of Cyp2B10 peptide NLQELLDYIGHSVEK” value (Cyp2B10; liver extract spiked with normal SILAM heavy extract (no heavy peptide signal)) was “infinite” and the “expression of proteins examined” value (drug metabolism enzymes) was “enhanced significantly the expression of many proteins examined except for Cyp2e and Homx1”. For the same compound, the Cyp4a expression (Cyp4a) was “moderate”.

With CC(=O)[C@H]1[C@H](C#N)C[C@H]2[C@@H]3CC=C4C[C@@H](O)CC[C@]4(C)[C@H]3CC[C@@]21C [PCN, pregnenolone 16α-carbonitrile] the “expression of drug metabolism related proteins relative to the total ion current” value [1] was “to a lesser extent, PCN, significantly increased the expression of many of these proteins”, the Cyp3a protein expression (Cyp3a) was “noticeable” and the “change to other Cyp proteins examined (other than Cyp3a)” value (drug metabolism enzymes; ip) was “no change”.

lipopolysaccharide [LPS] was tested, and the “number of inflammation related proteins in the lung that can be quantified using the enhanced SILAM” value [2] was “more than 100” and the “induction of the lung proteins listed in Table 4” value ([2]; versus vehicle) was “more than 5 times”.
